Measured values published in the supplement of paper PMC10627819.

How the values were obtained:
Test in all cases: fitness (endpoint OD595 vs no drug) (fraction); higher = more growth
S. aureus Newman = tested on: S. aureus Newman
In short: (§1)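 Cultures at OD595 0.01 were dispensed into 384-well plates in TSB, LB Lennox or CY and incubated at 37 °C. Every 30 min for 14 h, OD595 was read and corrected by the first reading. Fitness is the optical density at entry into stationary phase relative to the robust mean of no-drug control wells, capped at 1.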

S. aureus DSM 20231 = tested on: S. aureus DSM 20231
In short: as §1

S. pneumoniae D39V = tested on: S. pneumoniae D39V
In short: as §1

CO[C@@]12[C@H](COC(N)=O)C3=C(C(=O)C(C)=C(N)C3=O)N1C[C@@H]1N[C@@H]12 [Mitomycin C] + CCCCCCCCCC(=O)N[C@@H]1[C@H]([C@@H]([C@H](O[C@H]1OC2=C3C=C4C=C2OC5=C(C=C(C=C5)[C@H]([C@H]6C(=O)N[C@@H](C7=C(C(=CC(=C7)O)OC8[C@H]([C@H]([C@@H]([C@H](O8)CO)O)O)O)C9=C(C=CC(=C9)[C@H](C(=O)N6)NC(=O)[C@@H]4NC(=O)[C@@H]1C2=CC(=CC(=C2)OC2=C(C=CC(=C2)[C@H](C(=O)N[C@H](CC2=CC(=C(O3)C=C2)Cl)C(=O)N1)N)O)O)O)C(=O)O)O[C@H]1[C@@H]([C@H]([C@@H]([C@H](O1)CO)O)O)NC(=O)C)Cl)CO)O)O [Teicoplanin]
fitness, main component drawn
Details	first compound 0.0156 µg/mL	first compound 0.0312 µg/mL	first compound 0.0625 µg/mL
S. aureus DSM 20231, partner 0.1562 µg/mL	0.813	0.757	0.513
S. aureus DSM 20231, partner 0.3125 µg/mL	0.855	0.81	0.418
S. aureus DSM 20231, partner 0.625 µg/mL	0.902	0.814	0.255
S. aureus Newman, partner 0.1562 µg/mL	0.741	0.655	0.429
S. aureus Newman, partner 0.3125 µg/mL	0.753	0.582	0.296
S. aureus Newman, partner 0.625 µg/mL	0.568	0.417	0.138

fitness, S. aureus Newman, one replicate, main component drawn
Details	first compound 0.0156 µg/mL	first compound 0.0312 µg/mL	first compound 0.0625 µg/mL
partner 0.62 µg/mL	0.603	0.482	0.141
partner 1.24 µg/mL	0.482	0.322	0.02
partner 2.48 µg/mL	0.0779	0.119	0.0423

CO[C@@]12[C@H](COC(N)=O)C3=C(C(=O)C(C)=C(N)C3=O)N1C[C@@H]1N[C@@H]12 [Mitomycin C] + CCN(CC)CCOC(=O)c1ccc(N)cc1 [Procaine]
fitness
Details	first compound 0.001075 µg/mL	first compound 0.00215 µg/mL	first compound 0.0043 µg/mL	first compound 0.0156 µg/mL	first compound 0.0312 µg/mL	first compound 0.0625 µg/mL
S. aureus DSM 20231, partner 85.5 µg/mL	–	–	–	0.724	0.668	0.533
S. aureus DSM 20231, partner 171 µg/mL	–	–	–	0.796	0.753	0.572
S. aureus DSM 20231, partner 342 µg/mL	–	–	–	0.754	0.743	0.576
S. aureus Newman, partner 85.5 µg/mL	–	–	–	0.768	0.74	0.595
S. aureus Newman, partner 171 µg/mL	–	–	–	0.765	0.695	0.582
S. aureus Newman, partner 342 µg/mL	–	–	–	0.772	0.686	0.565
S. pneumoniae D39V, partner 85.5 µg/mL	0.966	0.935	0.844	–	–	–
S. pneumoniae D39V, partner 171 µg/mL	0.929	0.939	0.814	–	–	–
S. pneumoniae D39V, partner 342 µg/mL	0.937	0.951	0.826	–	–	–

fitness, S. pneumoniae D39V, one replicate
Details	first compound 0.002 µg/mL	first compound 0.004 µg/mL	first compound 0.008 µg/mL
partner 85.5 µg/mL	0.923	0.885	0.633
partner 171 µg/mL	0.885	0.847	0.641
partner 342 µg/mL	0.818	0.812	0.645

CO[C@@]12[C@H](COC(N)=O)C3=C(C(=O)C(C)=C(N)C3=O)N1C[C@@H]1N[C@@H]12 [Mitomycin C] + CN1C2=CC=CC=C2N=C3C1=CC=CC3=O [Pyocyanin]
fitness
Details	first compound 0.001075 µg/mL	first compound 0.00215 µg/mL	first compound 0.0043 µg/mL	first compound 0.0156 µg/mL	first compound 0.0312 µg/mL	first compound 0.0625 µg/mL
S. aureus DSM 20231, partner 1.25 µg/mL	–	–	–	0.704	0.73	0.573
S. aureus DSM 20231, partner 2.5 µg/mL	–	–	–	0.668	0.691	0.555
S. aureus DSM 20231, partner 5 µg/mL	–	–	–	0.547	0.543	0.414
S. aureus Newman, partner 1.25 µg/mL	–	–	–	0.648	0.614	0.49
S. aureus Newman, partner 2.5 µg/mL	–	–	–	0.558	0.58	0.406
S. aureus Newman, partner 5 µg/mL	–	–	–	0.265	0.239	0.0918
S. pneumoniae D39V, partner 0.325 µg/mL	0.964	0.984	0.847	–	–	–
S. pneumoniae D39V, partner 0.65 µg/mL	0.964	0.975	0.844	–	–	–
S. pneumoniae D39V, partner 1.3 µg/mL	0.726	0.721	0.621	–	–	–

fitness, S. pneumoniae D39V, one replicate
Details	first compound 0.002 µg/mL	first compound 0.004 µg/mL	first compound 0.008 µg/mL
partner 0.325 µg/mL	0.853	0.77	0.642
partner 0.65 µg/mL	0.835	0.802	0.744

CO[C@@]12[C@H](COC(N)=O)C3=C(C(=O)C(C)=C(N)C3=O)N1C[C@@H]1N[C@@H]12 [Mitomycin C] + CN(C)c1cc(NC(=O)CNC(C)(C)C)c(O)c2c1C[C@H]1C[C@H]3[C@H](N(C)C)C(O)=C(C(N)=O)C(=O)[C@@]3(O)C(O)=C1C2=O [Tigecycline]
fitness
Details	first compound 0.001075 µg/mL	first compound 0.002 µg/mL	first compound 0.00215 µg/mL	first compound 0.004 µg/mL	first compound 0.0043 µg/mL	first compound 0.008 µg/mL	first compound 0.0156 µg/mL	first compound 0.0312 µg/mL	first compound 0.0625 µg/mL
S. aureus Newman, partner 0.039 µg/mL	–	–	–	–	–	–	0.7	0.661	0.551
S. aureus Newman, partner 0.078 µg/mL	–	–	–	–	–	–	0.725	0.655	0.558
S. aureus Newman, partner 0.156 µg/mL	–	–	–	–	–	–	0.746	0.679	0.505
S. pneumoniae D39V, partner 0.65 µg/mL	0.89	0.878	0.848	0.804	0.819	0.688	–	–	–
S. pneumoniae D39V, partner 1.3 µg/mL	0.877	0.888	0.859	0.764	0.822	0.625	–	–	–
S. pneumoniae D39V, partner 2.6 µg/mL	0.893	0.816	0.844	0.806	0.783	0.627	–	–	–

CO[C@@]12[C@H](COC(N)=O)C3=C(C(=O)C(C)=C(N)C3=O)N1C[C@@H]1N[C@@H]12 [Mitomycin C] + CN[C@@H]1[C@H](O[C@H]2[C@H](O[C@H]3[C@H](O)[C@@H](O)[C@H](N=C(N)N)[C@@H](O)[C@@H]3N=C(N)N)O[C@@H](C)[C@]2(O)C=O)O[C@@H](CO)[C@H](O)[C@H]1O [Streptomycin]
fitness
Details	partner 1 µg/mL	partner 2 µg/mL	partner 4 µg/mL	partner 8 µg/mL
S. aureus Newman, first compound 0.0156 µg/mL	0.727	0.683	–	–
S. aureus Newman, first compound 0.0312 µg/mL	0.666	0.677	0.523	–
S. aureus Newman, first compound 0.0625 µg/mL	0.473	0.402	0.272	–
S. pneumoniae D39V, first compound 0.001075 µg/mL	–	0.883	0.913	0.939
S. pneumoniae D39V, first compound 0.002 µg/mL	–	–	0.857	0.802
S. pneumoniae D39V, first compound 0.00215 µg/mL	–	0.838	0.827	0.834
S. pneumoniae D39V, first compound 0.004 µg/mL	–	–	0.712	0.668
S. pneumoniae D39V, first compound 0.0043 µg/mL	–	0.701	0.741	0.717
S. pneumoniae D39V, first compound 0.008 µg/mL	–	–	0.54	0.56

fitness, S. pneumoniae D39V, one replicate
Details	first compound 0.002 µg/mL	first compound 0.004 µg/mL	first compound 0.008 µg/mL
partner 2 µg/mL	0.857	0.749	0.666
partner 16 µg/mL	0.711	0.544	0.304

CO[C@@]12[C@H](COC(N)=O)C3=C(C(=O)C(C)=C(N)C3=O)N1C[C@@H]1N[C@@H]12 [Mitomycin C] + CO[C@H]1/C=C/O[C@@]2(C)Oc3c(C)c(O)c4c(O)c(c(/C=N/N5CCN(C)CC5)c(O)c4c3C2=O)NC(=O)/C(C)=C\C=C\[C@H](C)[C@H](O)[C@@H](C)[C@@H](O)[C@@H](C)[C@H](OC(C)=O)[C@@H]1C [Rifampicin]
fitness, S. pneumoniae D39V
Details	first compound 0.001075 µg/mL	first compound 0.002 µg/mL	first compound 0.00215 µg/mL	first compound 0.004 µg/mL	first compound 0.0043 µg/mL	first compound 0.008 µg/mL
partner 0.05 µg/mL	0.779	0.647	0.664	0.558	0.517	–
partner 0.1 µg/mL	0.458	0.289	0.307	0.308	0.288	0.288
partner 0.2 µg/mL	0.18	–	0.169	–	0.129	–

fitness, S. pneumoniae D39V, one replicate
Details	first compound 0.002 µg/mL	first compound 0.004 µg/mL	first compound 0.008 µg/mL
partner 0.025 µg/mL	0.804	0.698	0.492
partner 0.2 µg/mL	0	0	0

CO[C@@]12[C@H](COC(N)=O)C3=C(C(=O)C(C)=C(N)C3=O)N1C[C@@H]1N[C@@H]12 [Mitomycin C] + COc1cc(Cc2cnc(N)nc2N)cc(OC)c1OC [Trimethoprim]
fitness, S. aureus DSM 20231
Details	partner 0.125 µg/mL	partner 0.25 µg/mL	partner 0.5 µg/mL	partner 1 µg/mL
first compound 0.0156 µg/mL	0.6	0.506	0.0394	0.0198
first compound 0.0312 µg/mL	0.604	0.485	0.0541	0.0233
first compound 0.0625 µg/mL	0.491	0.279	0.0513	0.0116

CO[C@@]12[C@H](COC(N)=O)C3=C(C(=O)C(C)=C(N)C3=O)N1C[C@@H]1N[C@@H]12 [Mitomycin C] + O=C1CN(/N=C/c2ccc([N+](=O)[O-])o2)C(=O)N1 [Nitrofurantoin]
fitness, S. pneumoniae D39V
Details	first compound 0.001075 µg/mL	first compound 0.002 µg/mL	first compound 0.00215 µg/mL	first compound 0.004 µg/mL	first compound 0.0043 µg/mL	first compound 0.008 µg/mL
partner 1.285 µg/mL	–	0.896	–	0.74	–	0.588
partner 2 µg/mL	0.889	–	0.883	–	0.759	–
partner 2.57 µg/mL	–	0.839	–	0.765	–	0.535
partner 4 µg/mL	0.866	–	0.835	–	0.679	–
partner 8 µg/mL	0.803	–	0.755	–	0.554	–

S. pneumoniae D39V, partner 5.14 µg/mL, one replicate
Details	fitness
first compound 0.002 µg/mL	0.723
first compound 0.004 µg/mL	0.613
first compound 0.008 µg/mL	0.419
